Test results: PMC3407203, “Bisphenol A Binds to the Local Anesthetic Receptor Site to Block the Human Cardiac Sodium Channel” (PLoS ONE, 2012)

Experiments:
[1] = cited from earlier work
hNav1.5 [2] = target: T1, hNav1.5 (Homo sapiens, UniProt Q14524); experiment: Tonic block of hNav1.5 currents, whole-cell patch clamp in transfected HEK293 cells; assay type: cell-based; conditions: for Kd: test pulse −10 mV at 0.2 Hz, room temperature, read-out: Kd of tonic block (Hill fit)
T1 construct: expressed in transfected cells; host or cells: HEK293
Procedure: (§1) The plasmid DNA of hNav1.5 in pTracer was used (gift from Dirk Isbrandt, Hamburg, Germany) for mutagenesis of F1760A (Qickchange XL kit, Qiagen GmbH, Hilden) and was performed according to the instructions of the manufacturer. HEK293 cells were maintained in Dulbecco’s Modified Eagle’s Medium (Invitrogen, Carlsbad, CA), supplemented with 10% fetal bovine serum, 100 U/ml penicillin and 100 µg/ml streptomycin, and incubated at 37°C with 5% CO2. […] Cells were transfected at 40–70% confluency using Nanofectin (PAA Laboratories GmbH, Pasching, Austria), according to manufacturer’s instructions, with 1 µg of hNav1.5 or the F1760A mutant of hNav1.5 and 0.5 µg EGFP, and distributed onto several 35 mm dishes on the following day. […] Only cells with robust green fluorescence were included in the analysis.
Whole-cell patch-clamp experiments were performed at room temperature using an Axopatch 200A operated by Clampex 9.2 software (Axon Instruments, Molecular Devices, USA) and 1–2 MΩ glass electrodes (WPI Inc, USA). […] All reagents were purchased from Sigma Chemical Company (Deisenhofen, Germany) unless otherwise noted. The tip of a constantly running gravity-driven perfusion system was positioned close to the recorded cell and drugs were applied by switching to bath solution containing the indicated concentration. […] Capacitive transients were cancelled, and series resistances (<5 MΩ) were compensated by 65–95%. Leak currents were subtracted digitally online using the P/4 procedure following the test pulses except for recordings of use dependency, where no leak correction was used. Currents were filtered at 10 kHz and sampled at 100 kHz, except for steady-state fast inactivation, where a sampling rate of 20 kHz was used.Recordings were obtained 4 min after establishing the whole-cell configuration. […] The block occurring 15 pulses after BPA or ETOH application (Ipost/Ipre = [drawing 1] ) was used as indicator for tonic block. The resulting single dose response data were fitted with a Hill function using a Levenberg-Marquard algorithm of Origin’s non linear curve fitter, where start and end were set to 0 and 1, respectively.

hNav1.5 [3] = target: T1, hNav1.5; experiment: Dissociation constants for resting (Kr) and inactivated (Ki) hNav1.5 channels, whole-cell patch clamp; assay type: cell-based; conditions: determined with 30 µM drug; read-out: Kr, dissociation constant for resting channels
Procedure: The dissociation constant for the resting channels, Kr, of the applied drugs were determined according to [17], [18]: with [drug] being the drug concentration present and Brest being the detected block of resting channels. […] This potential was determined for each cell individually by the above described protocol for steady-state fast inactivation.

F1760A mutant of hNav1.5 [4] = target: T2, F1760A mutant of hNav1.5 (Homo sapiens, UniProt Q14524, F1760A); experiment: Tonic block of F1760A mutant hNav1.5 currents, whole-cell patch clamp in transfected HEK293 cells; assay type: cell-based; conditions: Vhold −120 mV, tested every 5 s, read-out: Kd of tonic block (Hill fit)
T2 construct: expressed in transfected cells; host or cells: HEK293
Procedure: as §1
Whole-cell patch-clamp experiments were performed at room temperature using an Axopatch 200A operated by Clampex 9.2 software (Axon Instruments, Molecular Devices, USA) and 1–2 MΩ glass electrodes (WPI Inc, USA). […] All reagents were purchased from Sigma Chemical Company (Deisenhofen, Germany) unless otherwise noted. The tip of a constantly running gravity-driven perfusion system was positioned close to the recorded cell and drugs were applied by switching to bath solution containing the indicated concentration. […]

hNav1.5 [5] = target: T1, hNav1.5; experiment: Use-dependent current decline of hNav1.5, repetitive pulsing, whole-cell patch clamp; assay type: cell-based; conditions: for use-dependent block: 30 µM, WT hNav1.5, Vhold −120 mV
Source text: […] Current responses were normalized to the first recorded pulse and the available currents at the 30th pulses were compared.

hNav1.5 [6] = target: T1, hNav1.5; experiment: Activation and current decay of hNav1.5, whole-cell patch clamp; assay type: cell-based; conditions: post 100 µM BPA
Procedure: . The sodium channel conductance GNa was calculated using the following equation: […]
where INa is the amplitude of the current at the voltage Vm, and Erev is the reversal potential for sodium, which was determined for each cell individually. Activation curves were derived by plotting normalized GNa as a function of test potential and fitted using the Boltzmann equation: […]
where GNa,Max is the maximum conductance, Vhalf is the membrane potential at half-maximal activation, Vm is the membrane voltage and k is the slope factor.
Decay time constants were determined by fitting current recordings at test pulses to −10 mV for 40 ms from peak with a single exponential fit.

hNav1.5 [7] = target: T1, hNav1.5; experiment: Voltage dependence of steady-state fast inactivation of hNav1.5, whole-cell patch clamp; assay type: cell-based
Procedure: Whole-cell patch-clamp experiments were performed at room temperature using an Axopatch 200A operated by Clampex 9.2 software (Axon Instruments, Molecular Devices, USA) and 1–2 MΩ glass electrodes (WPI Inc, USA). […] All reagents were purchased from Sigma Chemical Company (Deisenhofen, Germany) unless otherwise noted. The tip of a constantly running gravity-driven perfusion system was positioned close to the recorded cell and drugs were applied by switching to bath solution containing the indicated concentration. […] Capacitive transients were cancelled, and series resistances (<5 MΩ) were compensated by 65–95%. Leak currents were subtracted digitally online using the P/4 procedure following the test pulses except for recordings of use dependency, where no leak correction was used. […] Fitting parameters (Kd) are given as best fit ± standard error.

F1760A mutant of hNav1.5 [8] = target: T2, F1760A mutant of hNav1.5; experiment: Use-dependent current decline of F1760A mutant hNav1.5, repetitive pulsing, whole-cell patch clamp; assay type: cell-based
Procedure: The plasmid DNA of hNav1.5 in pTracer was used (gift from Dirk Isbrandt, Hamburg, Germany) for mutagenesis of […] kit, Qiagen GmbH, Hilden) and was performed according to the instructions of the manufacturer. HEK293 cells were maintained in Dulbecco's Modified Eagle's Medium (Invitrogen, Carlsbad, CA), supplemented with 10% fetal bovine serum, 100 U/ml penicillin and 100 μg/ml streptomycin, and incubated at 37°C with 5% CO2. Briefly, HEK293 cells were plated at low density on 35 mm dishes 24 hours before transfection. […] Electrophysiology was performed 18-28 hours following transfections. Only cells with robust green fluorescence were included in the analysis.

[9] = set-up: method as in PMID 12387626; conditions: cited from earlier work

T1 sequence (Q14524 whole entry): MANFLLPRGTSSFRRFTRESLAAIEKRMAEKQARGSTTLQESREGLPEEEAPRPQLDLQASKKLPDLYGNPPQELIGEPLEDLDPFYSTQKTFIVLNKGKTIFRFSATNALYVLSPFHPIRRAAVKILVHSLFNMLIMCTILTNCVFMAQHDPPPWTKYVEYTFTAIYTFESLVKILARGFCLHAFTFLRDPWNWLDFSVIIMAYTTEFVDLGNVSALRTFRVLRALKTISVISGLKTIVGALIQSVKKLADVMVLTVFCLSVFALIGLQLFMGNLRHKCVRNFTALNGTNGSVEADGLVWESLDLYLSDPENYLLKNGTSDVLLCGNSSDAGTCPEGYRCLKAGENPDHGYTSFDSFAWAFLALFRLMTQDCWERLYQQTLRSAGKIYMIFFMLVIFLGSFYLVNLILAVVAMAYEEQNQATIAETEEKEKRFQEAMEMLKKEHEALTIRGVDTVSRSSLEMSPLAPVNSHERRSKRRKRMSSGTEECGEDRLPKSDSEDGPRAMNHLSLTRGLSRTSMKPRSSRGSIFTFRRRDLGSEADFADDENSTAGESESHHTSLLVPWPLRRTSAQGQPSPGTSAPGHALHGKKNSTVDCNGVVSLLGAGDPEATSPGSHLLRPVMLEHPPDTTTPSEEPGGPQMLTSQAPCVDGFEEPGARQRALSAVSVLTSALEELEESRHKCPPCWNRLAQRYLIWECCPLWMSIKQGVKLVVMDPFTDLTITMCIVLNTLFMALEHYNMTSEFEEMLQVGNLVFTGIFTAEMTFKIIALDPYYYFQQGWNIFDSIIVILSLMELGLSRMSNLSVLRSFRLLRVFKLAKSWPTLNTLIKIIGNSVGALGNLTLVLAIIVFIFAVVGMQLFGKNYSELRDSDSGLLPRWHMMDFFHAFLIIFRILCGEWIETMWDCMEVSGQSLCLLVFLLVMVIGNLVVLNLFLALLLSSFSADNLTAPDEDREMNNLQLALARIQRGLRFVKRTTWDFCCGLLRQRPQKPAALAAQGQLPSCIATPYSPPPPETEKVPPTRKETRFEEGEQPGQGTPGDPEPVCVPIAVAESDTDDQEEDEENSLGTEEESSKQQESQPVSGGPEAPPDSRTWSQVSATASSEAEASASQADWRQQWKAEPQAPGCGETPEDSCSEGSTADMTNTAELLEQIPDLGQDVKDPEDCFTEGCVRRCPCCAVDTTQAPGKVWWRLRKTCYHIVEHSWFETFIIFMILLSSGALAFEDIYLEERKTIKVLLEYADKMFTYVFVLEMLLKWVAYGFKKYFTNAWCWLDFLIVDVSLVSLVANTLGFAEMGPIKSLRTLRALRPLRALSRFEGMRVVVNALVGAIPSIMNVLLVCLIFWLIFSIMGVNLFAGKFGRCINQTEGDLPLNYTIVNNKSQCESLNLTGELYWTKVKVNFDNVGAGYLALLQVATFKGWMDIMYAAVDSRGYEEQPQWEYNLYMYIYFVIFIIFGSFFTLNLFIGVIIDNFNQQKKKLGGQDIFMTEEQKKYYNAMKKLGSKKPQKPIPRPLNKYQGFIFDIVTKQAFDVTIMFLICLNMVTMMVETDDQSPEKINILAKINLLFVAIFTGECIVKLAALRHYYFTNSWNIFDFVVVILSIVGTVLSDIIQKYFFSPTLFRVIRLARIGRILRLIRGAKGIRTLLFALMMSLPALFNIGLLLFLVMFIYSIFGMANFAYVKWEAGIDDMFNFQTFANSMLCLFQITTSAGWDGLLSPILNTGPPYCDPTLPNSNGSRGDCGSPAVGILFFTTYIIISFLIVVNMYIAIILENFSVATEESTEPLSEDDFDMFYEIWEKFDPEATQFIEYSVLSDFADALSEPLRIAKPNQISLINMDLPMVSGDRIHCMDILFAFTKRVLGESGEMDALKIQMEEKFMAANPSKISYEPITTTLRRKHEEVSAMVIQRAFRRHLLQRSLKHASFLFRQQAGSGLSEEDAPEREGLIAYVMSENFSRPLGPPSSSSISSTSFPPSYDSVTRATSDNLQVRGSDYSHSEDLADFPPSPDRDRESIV
T2 sequence (Q14524 whole entry F1760A): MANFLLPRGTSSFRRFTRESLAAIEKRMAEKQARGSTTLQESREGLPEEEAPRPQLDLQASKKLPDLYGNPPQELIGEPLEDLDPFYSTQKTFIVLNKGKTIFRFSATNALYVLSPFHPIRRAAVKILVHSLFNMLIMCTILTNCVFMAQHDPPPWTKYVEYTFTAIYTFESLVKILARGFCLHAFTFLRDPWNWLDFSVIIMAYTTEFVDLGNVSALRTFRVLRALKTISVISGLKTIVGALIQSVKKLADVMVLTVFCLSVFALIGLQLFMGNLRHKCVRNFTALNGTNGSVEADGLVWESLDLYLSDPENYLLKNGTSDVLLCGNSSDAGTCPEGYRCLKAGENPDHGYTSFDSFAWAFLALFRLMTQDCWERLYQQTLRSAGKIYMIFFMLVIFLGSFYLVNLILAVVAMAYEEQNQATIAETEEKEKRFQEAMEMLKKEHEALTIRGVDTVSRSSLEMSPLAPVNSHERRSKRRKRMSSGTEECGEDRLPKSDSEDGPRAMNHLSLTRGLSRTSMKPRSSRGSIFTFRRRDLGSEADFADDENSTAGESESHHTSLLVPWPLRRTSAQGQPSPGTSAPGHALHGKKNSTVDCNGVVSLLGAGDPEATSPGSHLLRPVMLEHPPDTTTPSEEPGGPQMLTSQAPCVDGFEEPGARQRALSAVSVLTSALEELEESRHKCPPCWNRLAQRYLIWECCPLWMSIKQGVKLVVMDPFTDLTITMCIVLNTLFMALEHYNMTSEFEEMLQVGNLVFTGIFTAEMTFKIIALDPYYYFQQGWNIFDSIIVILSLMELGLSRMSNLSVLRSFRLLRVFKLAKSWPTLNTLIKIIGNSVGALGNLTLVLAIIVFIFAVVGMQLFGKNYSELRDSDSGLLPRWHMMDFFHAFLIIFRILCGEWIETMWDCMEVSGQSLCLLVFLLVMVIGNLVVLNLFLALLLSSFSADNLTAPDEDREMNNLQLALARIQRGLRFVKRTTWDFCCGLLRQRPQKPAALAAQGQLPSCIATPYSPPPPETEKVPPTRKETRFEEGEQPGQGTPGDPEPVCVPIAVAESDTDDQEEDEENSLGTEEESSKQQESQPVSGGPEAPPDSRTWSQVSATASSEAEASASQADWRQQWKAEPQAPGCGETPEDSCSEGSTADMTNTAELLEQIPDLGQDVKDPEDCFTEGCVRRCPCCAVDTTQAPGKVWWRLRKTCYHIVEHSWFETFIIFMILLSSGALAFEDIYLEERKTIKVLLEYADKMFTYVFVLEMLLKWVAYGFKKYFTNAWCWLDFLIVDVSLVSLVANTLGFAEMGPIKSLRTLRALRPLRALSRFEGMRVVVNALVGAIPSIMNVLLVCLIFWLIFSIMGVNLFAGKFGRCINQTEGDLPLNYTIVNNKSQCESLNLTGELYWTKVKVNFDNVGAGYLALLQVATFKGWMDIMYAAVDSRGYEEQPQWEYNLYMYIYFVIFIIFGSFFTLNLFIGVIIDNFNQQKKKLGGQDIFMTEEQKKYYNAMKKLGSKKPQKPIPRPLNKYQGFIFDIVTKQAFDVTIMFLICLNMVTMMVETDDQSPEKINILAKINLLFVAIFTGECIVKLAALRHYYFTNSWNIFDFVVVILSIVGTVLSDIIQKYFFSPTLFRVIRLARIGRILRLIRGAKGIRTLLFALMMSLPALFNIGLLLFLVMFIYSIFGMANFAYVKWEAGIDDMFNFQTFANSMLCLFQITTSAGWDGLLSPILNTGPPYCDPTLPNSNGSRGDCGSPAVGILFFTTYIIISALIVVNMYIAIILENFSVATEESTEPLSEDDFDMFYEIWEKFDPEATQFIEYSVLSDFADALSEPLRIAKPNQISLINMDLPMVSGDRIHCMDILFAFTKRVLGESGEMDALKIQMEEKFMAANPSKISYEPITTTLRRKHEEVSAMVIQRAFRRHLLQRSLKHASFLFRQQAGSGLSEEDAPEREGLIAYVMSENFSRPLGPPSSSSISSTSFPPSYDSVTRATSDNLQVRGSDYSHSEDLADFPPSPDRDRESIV

Row | Structure (SMILES) | mean human blood levels [1] [nM] | highest reported blood level ([1]; human) [nM] | Kd (hNav1.5 [2]; WT hNav1.5, Vhold −90 mV) [µM] | Kd (hNav1.5 [2]; WT hNav1.5, Vhold −120 mV) [µM] | lowest concentration tested at which hNav1.5 currents were not affected (no effect level, NOEL) (hNav1.5 [2]; tonic block) [nM] | lowest concentration to have a significant effect on hNav1.5 (hNav1.5 [2]; tonic block, Fig. 1A) [µM] | Kd (hNav1.5 [3]) [µM] | Kd (F1760A mutant of hNav1.5 [4]) [µM] | use-dependent block (hNav1.5 [5]) | use-dependent current decline (hNav1.5 [5]; all frequencies tested (1 to 100 Hz), WT hNav1.5) | τ of single exponential fit of current decay (hNav1.5 [6]; test pulse to −10 mV, pre 1.1±0.08 ms) [ms] | Vhalf of activation (hNav1.5 [6]; pre −32.0±2.5 mV) [mV] | hyperpolarizing shift of Vhalf of steady-state fast inactivation (hNav1.5 [7]; 100 µM, n = 9) [mV] | slope factor k of steady-state fast inactivation (hNav1.5 [7]; post application of 100 µM BPA, pre 5.6±0.3) | Vhalf of steady-state fast inactivation (hNav1.5 [7]; post application of 100 µM BPA, pre −89.3±1.5 mV, n = 9) [mV] | use-dependent block in F1760A compared to WT (F1760A mutant of hNav1.5 [8]; 30 µM) | half-life in the body [9] [h] | tonic block (hNav1.5 [2]; 30 µM, WT hNav1.5) | tonic and use-dependent block in F1760A compared to WT (F1760A mutant of hNav1.5 [8]; 150 µM)
1 | CC(C)(c1ccc(O)cc1)c1ccc(O)cc1 [BPA, Bisphenol A] | ~10 | 290 | 25.4 ± 1.3 | 74 ± 7.6 | 100 | 1 | 58.6 ± 8 | 104 ± 6.7 | significant use-dependent block | enhance use-dependent current decline | 1.13 ± 0.1 | −32.9±3.7 | 15.8±1.1 | 6.5±0.2 | −105.1±2.1 | robustly reduced | < 6 |  | 
2 | Cc1cccc(C)c1OCC(C)N (centres unmarked) [mexiletine, reference compound] |  |  |  |  |  |  |  |  | significant use-dependent block |  |  |  |  |  |  |  |  | almost absent | reduced tonic and use-dependent block
